Broadly, the EC50 is the midpoint of the concentration-response curve.

Results on 34 compounds are retold here after US20230406843A1, “Progranulin Modulators and Methods of Using the Same” (ARKUDA THERAPEUTICS, priority 2020, published 2023).

A value given as a limit tells only on which side of the number the result lay.

One assay has as its system progranulin. Briefly: Progranulin induction cellular assay (ELISA of secreted mouse PGRN). The conditions noted are these: Mus musculus, BV-2, read-out: EC50 μM. The format is cell-based. The method, boiled down: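 Secreted mouse PGRN in culture medium is measured by ELISA. Cells tested are BV-2, primary cortical neurons and primary microglia. BV-2 cells are plated a day ahead, allowed 1 h to attach, then incubated 16 h.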
With `CC(=O)N[C@@H]1CO[C@@H](C(=O)N2CCc3ccccc3[C@@H]2c2ccc(F)cc2)C[C@@H]1N` [Compound 5427, N-((3S,4S,6R)-4-amino-6-((S)-1-(4-fluorophenyl)-1,2,3,4-tetrahydroisoquinoline-2-carbonyl)tetrahydro-2H-pyran-3-yl)acetamide], the concentration giving a half-maximal response (EC50) stood at 0.096 µM.

`C=CCO[C@H]1CO[C@@H](C(=O)N2CCc3ccccc3[C@@H]2c2ccc(F)cc2)C[C@@H]1N` [Compound 5476, ((2R,4S,5R)-5-(allyloxy)-4-aminotetrahydro-2H-pyran-2-yl)((S)-1-(4-fluorophenyl)-3,4-dihydroisoquinolin-2(1H)-yl)methanone]: the EC50 came to 0.001 µM.

Still in this assay, the particulars now being: progranulin induction assay; mouse pMG, primary cortical neurons and BV-2 cell lines named, cell type not given; ELISA-based readout; read-out: EC50.
On to `CCO[C@H]1CO[C@@H](C(=O)N2CCc3ccccc3[C@@H]2c2ccc(F)cc2)C[C@H]1N` [Compound 5248, ((2R,4R,5R)-4-amino-5-ethoxytetrahydro-2H-pyran-2-yl)((S)-1-(4-fluorophenyl)-3,4-dihydroisoquinolin-2(1H)-yl)methanone], for which the EC50 was 0.032 µM.

As to `N[C@@H]1C[C@H](C(=O)N2CCc3ccccc3[C@@H]2c2ccc(F)cc2)OC[C@@H]1F` [Compound 5250, ((2R,4R,5R)-4-amino-5-fluorotetrahydro-2H-pyran-2-yl)((S)-1-(4-fluorophenyl)-3,4-dihydroisoquinolin-2(1H)-yl)methanone], the EC50 is 0.095 µM.

For `N[C@@H]1C[C@H](C(=O)N2CCc3ccccc3[C@@H]2c2ccc(F)cc2)OC[C@H]1F` [Compound 5251, ((2R,4R,5S)-4-amino-5-fluorotetrahydro-2H-pyran-2-yl)((S)-1-(4-fluorophenyl)-3,4-dihydroisoquinolin-2(1H)-yl)methanone], the EC50 turned out to be 0.188 µM.

Take `N[C@H]1CC[C@H](C(=O)N2CCc3ccccc3[C@@H]2c2ccc(F)cc2F)OC1` [Compound 5255]: the EC50 worked out at 0.03 µM.

Take `N[C@@H]1CCO[C@@H](C(=O)N2CCc3ccccc3[C@@H]2c2ccc(F)cc2F)C1` [Compound 5256]: the 50% effective concentration (EC50) turned out to be 0.1 µM.

In the case of `N[C@H]1C[C@H](C(=O)N2CCc3ccccc3[C@@H]2c2ccc(F)cc2F)OC[C@H]1O` [Compound 5257], the half-maximal effective concentration (EC50) is 0.022 µM.

Take `N[C@@H]1CO[C@@H](C(=O)N2CCc3ccccc3[C@@H]2c2ccc(F)cc2F)C[C@@H]1O` [Compound 5258]: the concentration for a half-maximal effect (EC50) was 0.062 µM.

`CO[C@H]1C[C@H](C(=O)N2CCc3ccccc3[C@@H]2c2ccc(F)cc2F)OC[C@H]1N` [Compound 5259]: the EC50 is 0.046 µM.

On to `CO[C@@H]1CO[C@@H](C(=O)N2CCc3ccccc3[C@@H]2c2ccc(F)cc2F)C[C@@H]1N` [Compound 5261], for which the EC50 came out at 0.079 µM.

As for `CCO[C@@H]1CO[C@@H](C(=O)N2CCc3ccccc3[C@@H]2c2ccc(F)cc2F)C[C@@H]1N` [Compound 5262], the EC50 worked out at 0.044 µM.

With `O=C([C@H]1C[C@@H]2NCCO[C@H]2CO1)N1CCc2ccccc2[C@@H]1c1ccc(F)cc1` [Compound 5266, ((S)-1-(4-fluorophenyl)-3,4-dihydroisoquinolin-2(1H)-yl)((4aR,7R,8aS)-octahydropyrano[3,4-b][1,4]oxazin-7-yl)methanone], the 50% effective concentration (EC50) was determined as 0.036 µM.

Take `CC(C)O[C@H]1CO[C@@H](C(=O)N2CCc3ccccc3[C@@H]2c2ccc(F)cc2)C[C@@H]1N` [Compound 5267, ((2R,4S,5R)-4-amino-5-isopropoxytetrahydro-2H-pyran-2-yl)((S)-1-(4-fluorophenyl)-3,4-dihydroisoquinolin-2(1H)-yl)methanone]: the EC50 was found to be 0.0001 µM.

For `O=C([C@H]1CNCCO1)N1CCc2ccccc2[C@@H]1c1ccc(F)cc1` [Compound 5405, ((S)-1-(4-fluorophenyl)-3,4-dihydroisoquinolin-2(1H)-yl)((R)-morpholin-2-yl)methanone], the 50% effective concentration (EC50) amounted to 0.736 µM.

With `O=C([C@@H]1CNCCO1)N1CCc2ccccc2[C@@H]1c1ccc(F)cc1` [Compound 5406, ((S)-1-(4-fluorophenyl)-3,4-dihydroisoquinolin-2(1H)-yl)((S)-morpholin-2-yl)methanone], the 50% effective concentration (EC50) came to 0.715 µM.

Turning to `O=C([C@H]1OCCNC[C@H]1F)N1CCc2ccccc2[C@@H]1c1ccc(F)cc1` [Compound 5421], the concentration giving a half-maximal response (EC50) amounted to 0.843 µM.

Turning to `CS[C@@H]1CO[C@@H](C(=O)N2CCc3ccccc3[C@@H]2c2ccc(F)cc2)C[C@@H]1N` [Compound 5425, ((2R,4S,5S)-4-amino-5-(methylthio)tetrahydro-2H-pyran-2-yl)((S)-1-(4-fluorophenyl)-3,4-dihydroisoquinolin-2(1H)-yl)methanone], the EC50 was found to be 0.186 µM.

As for `CS(=O)(=O)[C@@H]1CO[C@@H](C(=O)N2CCc3ccccc3[C@@H]2c2ccc(F)cc2)C[C@@H]1N` [Compound 5426, ((2R,4S,5S)-4-amino-5-(methylsulfonyl)tetrahydro-2H-pyran-2-yl)((S)-1-(4-fluorophenyl)-3,4-dihydroisoquinolin-2(1H)-yl)methanone], the EC50 was 0.441 µM.

In the case of `CS(=O)(=O)N[C@@H]1CO[C@@H](C(=O)N2CCc3ccccc3[C@@H]2c2ccc(F)cc2)C[C@@H]1N` [Compound 5428, N-((3S,4S,6R)-4-amino-6-((S)-1-(4-fluorophenyl)-1,2,3,4-tetrahydroisoquinoline-2-carbonyl)tetrahydro-2H-pyran-3-yl)methanesulfonamide], the concentration giving a half-maximal response (EC50) was > 10 µM.

Turning to `O=C([C@H]1C[C@@H]2NC=N[C@@H]2CO1)N1CCc2ccccc2[C@@H]1c1ccc(F)cc1` [Compound 5430, ((S)-1-(4-fluorophenyl)-3,4-dihydroisoquinolin-2(1H)-yl)((3aS,6R,7aS)-1,3a,4,6,7,7a-hexahydropyrano[3,4-d]imidazol-6-yl)methanone], the concentration giving a half-maximal response (EC50) was > 0.3 µM.

In the case of `CN[C@@H]1CO[C@@H](C(=O)N2CCc3ccccc3[C@@H]2c2ccc(F)cc2)C[C@@H]1O` [Compound 5431, ((S)-1-(4-fluorophenyl)-3,4-dihydroisoquinolin-2(1H)-yl)((2R,4S,5R)-4-hydroxy-5-(methylamino)tetrahydro-2H-pyran-2-yl)methanone], the concentration giving a half-maximal response (EC50) came to 0.029 µM.

In the case of `O=C([C@H]1C[C@@H]2OCCN[C@@H]2CO1)N1CCc2ccccc2[C@@H]1c1ccc(F)cc1` [Compound 5432, ((S)-1-(4-fluorophenyl)-3,4-dihydroisoquinolin-2(1H)-yl)((4aR,7R,8aS)-hexahydro-2H,5H-pyrano[4,3-b][1,4]oxazin-7-yl)methanone], the EC50 came to 0.113 µM.

For the compound `N[C@H]1C[C@H](C(=O)N2CCc3ccccc3[C@@H]2c2ccc(F)cc2)OC[C@H]1OC(F)F` [Compound 5443, ((2R,4S,5S)-4-amino-5-(difluoromethoxy)tetrahydro-2H-pyran-2-yl)((S)-1-(4-fluorophenyl)-3,4-dihydroisoquinolin-2(1H)-yl)methanone], the EC50 is 0.151 µM.

On to `CN(C)[C@H]1C[C@H](C(=O)N2CCc3ccccc3[C@@H]2c2ccc(F)cc2)OC[C@H]1O` [Compound 5447, ((2R,4S,5S)-4-(dimethylamino)-5-hydroxytetrahydro-2H-pyran-2-yl)((S)-1-(4-fluorophenyl)-3,4-dihydroisoquinolin-2(1H)-yl)methanone], for which the EC50 is 0.659 µM.

On to `O=C([C@H]1C[C@@H]2NCCO[C@@H]2CO1)N1CCc2ccccc2[C@@H]1c1ccc(F)cc1` [Compound 5448, ((S)-1-(4-fluorophenyl)-3,4-dihydroisoquinolin-2(1H)-yl)((4aS,7R,8aS)-octahydropyrano[3,4-b][1,4]oxazin-7-yl)methanone], for which the EC50 turned out to be 0.044 µM.

Regarding `O=C([C@H]1C[C@@H]2NCCN[C@H]2CO1)N1CCc2ccccc2[C@@H]1c1ccc(F)cc1` [Compound 5461, ((S)-1-(4-fluorophenyl)-3,4-dihydroisoquinolin-2(1H)-yl)((4aR,7R,8aS)-octahydro-2H-pyrano[3,4-b]pyrazin-7-yl)methanone], the EC50 amounted to 0.01 µM.

Turning to `CN1CCN[C@H]2C[C@H](C(=O)N3CCc4ccccc4[C@@H]3c3ccc(F)cc3)OC[C@@H]21` [Compound 5462, ((S)-1-(4-fluorophenyl)-3,4-dihydroisoquinolin-2(1H)-yl)((4aR,7R,8aS)-4-methyloctahydro-2H-pyrano[3,4-b]pyrazin-7-yl)methanone], the EC50 turned out to be 0.003 µM.

Consider `C[C@H]1CN[C@H]2C[C@H](C(=O)N3CCc4ccccc4[C@@H]3c3ccc(F)cc3)OC[C@@H]2O1` [Compound 5471, ((S)-1-(4-fluorophenyl)-3,4-dihydroisoquinolin-2(1H)-yl)((3S,4aR,7R,8aS)-3-methyloctahydropyrano[3,4-b][1,4]oxazin-7-yl)methanone], for which the EC50 was 0.109 µM.

On to `C[C@@H]1CN[C@H]2C[C@H](C(=O)N3CCc4ccccc4[C@@H]3c3ccc(F)cc3)OC[C@@H]2O1` [Compound 5472, ((S)-1-(4-fluorophenyl)-3,4-dihydroisoquinolin-2(1H)-yl)((3R,4aR,7R,8aS)-3-methyloctahydropyrano[3,4-b][1,4]oxazin-7-yl)methanone], for which the EC50 was determined as 0.013 µM.

Take `O=C([C@H]1C[C@@H]2NC[C@@H](C(F)(F)F)O[C@H]2CO1)N1CCc2ccccc2[C@@H]1c1ccc(F)cc1` [Compound 5473, ((S)-1-(4-fluorophenyl)-3,4-dihydroisoquinolin-2(1H)-yl)((3S,4aR,7R,8aS)-3-(trifluoromethyl)octahydropyrano[3,4-b][1,4]oxazin-7-yl)methanone]: the EC50 was 0.621 µM.

For the compound `O=C([C@H]1C[C@@H]2NC[C@H](C(F)(F)F)O[C@H]2CO1)N1CCc2ccccc2[C@@H]1c1ccc(F)cc1` [Compound 5474, ((S)-1-(4-fluorophenyl)-3,4-dihydroisoquinolin-2(1H)-yl)((3R,4aR,7R,8aS)-3-(trifluoromethyl)octahydropyrano[3,4-b][1,4]oxazin-7-yl)methanone], the EC50 was 1.51 µM.

Take `N[C@H]1C[C@H](C(=O)N2CCc3ccccc3[C@@H]2c2ccc(F)cc2)OC[C@@H]1OCC(F)(F)F` [Compound 5475, ((2R,4S,5R)-4-amino-5-(2,2,2-trifluoroethoxy)tetrahydro-2H-pyran-2-yl)((S)-1-(4-fluorophenyl)-3,4-dihydroisoquinolin-2(1H)-yl)methanone]: the EC50 came to 0.001 µM.

Consider `N[C@H]1CCO[C@@H](C(=O)N2CCc3ccccc3[C@@H]2c2ccc(F)cc2F)C1` [Compound 5500], for which the half-maximal effective concentration (EC50) worked out at 0.19 µM.
